# pIC50: −log10 of the molar value. Where two headings read alike, the source gives them in different places.
# Tests used:
# orexin-1 = orexin-1 (Homo sapiens (Human), UniProt O43613); assay: Intracellular calcium measurement (FLIPR), CHO cells expressing human orexin-1 receptor, 3 nM orexin-A; format: cell-based; details: read-out: IC50 OX1
# How it was run: (§1)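 HBSS buffer with 0.1% BSA, NaHCO3 and 20 mM HEPES carries both compounds and agonist. Dye: fluo-4 AM (3 μM) with 5 mM probenecid. Compound exposure 120 min; peak signal scored against uninhibited orexin-A response.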
# human orexin-2 receptor = human orexin-2 receptor (Homo sapiens (Human), UniProt O43614); assay: Intracellular calcium measurement (FLIPR), CHO cells expressing human orexin-2 receptor, 3 nM orexin-A; format: cell-based; details: read-out: IC50 OX2
# Chain of human orexin-2 receptor (O43614 whole entry): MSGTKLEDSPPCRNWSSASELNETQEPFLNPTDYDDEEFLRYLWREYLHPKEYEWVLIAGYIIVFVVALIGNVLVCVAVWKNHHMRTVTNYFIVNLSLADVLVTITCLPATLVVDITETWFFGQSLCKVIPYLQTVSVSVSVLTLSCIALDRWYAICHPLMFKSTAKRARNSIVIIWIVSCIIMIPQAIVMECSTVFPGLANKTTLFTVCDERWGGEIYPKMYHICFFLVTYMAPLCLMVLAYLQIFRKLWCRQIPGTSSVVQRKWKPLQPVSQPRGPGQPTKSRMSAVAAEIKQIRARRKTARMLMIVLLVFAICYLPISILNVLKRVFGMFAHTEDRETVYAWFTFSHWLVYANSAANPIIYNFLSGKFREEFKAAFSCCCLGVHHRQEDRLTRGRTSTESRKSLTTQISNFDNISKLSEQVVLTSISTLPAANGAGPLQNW
# How it was run: as §1
# [1] = CHO cells expressing human orexin-1 receptor, FLIPR, 3 nM orexin-A, geometric mean if determined several times
# [2] = CHO cells expressing human orexin-2 receptor, FLIPR, 3 nM orexin-A, geometric mean if determined several times
# Chain of orexin-1 (O43613 whole entry): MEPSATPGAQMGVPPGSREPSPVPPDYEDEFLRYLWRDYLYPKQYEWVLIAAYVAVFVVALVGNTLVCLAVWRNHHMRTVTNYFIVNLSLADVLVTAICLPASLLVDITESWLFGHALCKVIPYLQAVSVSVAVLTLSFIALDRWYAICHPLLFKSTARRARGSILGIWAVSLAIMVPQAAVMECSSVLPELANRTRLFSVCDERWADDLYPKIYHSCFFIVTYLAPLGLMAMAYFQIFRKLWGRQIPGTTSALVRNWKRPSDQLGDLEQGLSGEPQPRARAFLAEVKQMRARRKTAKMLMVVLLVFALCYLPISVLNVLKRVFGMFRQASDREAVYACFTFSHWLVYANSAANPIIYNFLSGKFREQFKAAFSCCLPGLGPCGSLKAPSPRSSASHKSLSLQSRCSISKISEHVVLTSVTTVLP
SMILES,pIC50 (orexin-1; [1]),pIC50 (human orexin-2 receptor; [2]),pIC50 (orexin-1),pIC50 (human orexin-2 receptor)
"Cc1ccc(C(=O)N2CCC[C@H]2c2noc(-c3cccc(F)c3C)n2)c(-n2nccn2)c1 [compound 337, {(S)-2-[5-(3-Fluoro-2-methyl-phenyl)-[1,2,4]oxadiazol-3-yl]-pyrrolidin-1-yl}-(4-methyl-2-[1,2,3]triazol-2-yl-phenyl)-methanone]",6.95,7.85,–,–
COc1cc(C(=O)N2CCC[C@H]2c2noc(-c3cc(C)ccc3OC)n2)c(-n2nccn2)cc1Cl [compound 350],7.44,8.70,–,–
"Cc1ccc(-n2nccn2)c(C(=O)N2CCC[C@H]2c2nc(-c3cnccc3C)no2)c1 [compound 58, {(S)-2-[3-(4-Methyl-pyridin-3-yl)-[1,2,4]oxadiazol-5-yl]-pyrrolidin-1-yl}-(5-methyl-2-[1,2,3]triazol-2-yl-phenyl)-methanone]",< 5.30,6.27,–,–
Cc1ccc(-c2ncco2)c(C(=O)N2CCC[C@H]2c2nc(-c3cccc(Cl)c3C)no2)c1 [compound 131],–,–,7.35,8.10
O=C(c1cc(Cl)ccc1-n1nccn1)N1CCC[C@H]1c1nc(-c2ccccc2Cl)no1 [compound 236],5.73,–,–,6.82
"COc1c(Cl)cccc1-c1nnc([C@@H]2CCCN2C(=O)c2ccc(C)cc2-n2nccn2)[nH]1 [compound 489, {(S)-2-[5-(3-Chloro-2-methoxy-phenyl)-4H-[1,2,4]triazol-3-yl]-pyrrolidin-1-yl}-(4-methyl-2-[1,2,3]triazol-2-yl-phenyl)-methanone]",7.21,8.00,–,–
"COc1c(Cl)cccc1-c1nnc([C@@H]2CCCN2C(=O)c2cc(C)c(C)cc2-n2nccn2)[nH]1 [compound 492, {(S)-2-[5-(3-Chloro-2-methoxy-phenyl)-4H-[1,2,4]triazol-3-yl]-pyrrolidin-1-yl}-(4,5-dimethyl-2-[1,2,3]triazol-2-yl-phenyl)-methanone]",7.57,8.52,–,–
"O=C(c1cccc(F)c1-n1cccn1)N1CCC[C@H]1c1nc(-c2ccccc2OC(F)(F)F)no1 [compound 164, (3-Fluoro-2-pyrazol-1-yl-phenyl)-{(S)-2-[3-(2-trifluoromethoxy-phenyl)-[1,2,4]oxadiazol-5-yl]-pyrrolidin-1-yl}-methanone]",6.48,6.77,–,–
"Cc1ccc(-n2nccn2)c(C(=O)N2CCC[C@H]2c2nnc(-c3cccc(F)c3C)o2)c1 [Example 453, {(S)-2-[5-(3-Fluoro-2-methyl-phenyl)-[1,3,4]oxadiazol-2-yl]-pyrrolidin-1-yl}-(5-methyl-2-[1,2,3]triazol-2-yl-phenyl)-methanone]",6.40,7.10,–,–
Cc1cc(-n2nccn2)c(C(=O)N2CCC[C@H]2c2nc(-c3ccccc3OC(F)(F)F)no2)cc1Cl [compound 299],7.60,7.72,–,–
Cc1onc(-c2ccccc2Cl)c1C(=O)N1CCC[C@H]1c1nc(-c2cccc(Cl)c2C)no1 [Ref 7],6.28,6.23,–,–
"COc1cc(-c2noc([C@@H]3CCCN3C(=O)c3cc(C)ccc3-n3nccn3)n2)ccn1 [compound 32, {(S)-2-[3-(2-Methoxy-pyridin-4-yl)-[1,2,4]oxadiazol-5-yl]-pyrrolidin-1-yl}-(5-methyl-2-[1,2,3]triazol-2-yl-phenyl)-methanone]",5.64,6.02,–,–
"CCOc1ncccc1-c1nc([C@@H]2CCCN2C(=O)c2cc(OC)c(F)cc2-n2nccn2)no1 [compound 332, {(S)-2-[5-(2-Ethoxy-pyridin-3-yl)-[1,2,4]oxadiazol-3-yl]-pyrrolidin-1-yl}-(4-fluoro-5-methoxy-2-[1,2,3]triazol-2-yl-phenyl)-methanone]",7.00,8.40,–,–
"COc1ccccc1-c1cnc([C@@H]2CCCN2C(=O)c2cc(C)ccc2-n2nccn2)[nH]1 [Example 516, {(S)-2-[5-(2-Methoxy-phenyl)-1H-imidazol-2-yl]-pyrrolidin-1-yl}-(5-methyl-2-[1,2,3]triazol-2-yl-phenyl)-methanone]",7.74,7.74,–,–
"CCOc1c(F)cccc1-c1nc([C@@H]2CCCN2C(=O)c2cc(OC)c(F)cc2-n2nccn2)no1 [compound 325, {(S)-2-[5-(2-Ethoxy-3-fluoro-phenyl)-[1,2,4]oxadiazol-3-yl]-pyrrolidin-1-yl}-(4-fluoro-5-methoxy-2-[1,2,3]triazol-2-yl-phenyl)-methanone]",6.82,8.22,–,–
"CCOc1ncccc1-c1noc([C@@H]2CCCN2C(=O)c2cccc(F)c2-c2ccn[nH]2)n1 [compound 216, {(S)-2-[3-(2-Ethoxy-pyridin-3-yl)-[1,2,4]oxadiazol-5-yl]-pyrrolidin-1-yl}-[3-fluoro-2-(2H-pyrazol-3-yl)-phenyl]-methanone]",7.12,7.57,–,–
Cc1ccc(C(=O)N2CCC[C@H]2c2nc(-c3cccc(Cl)c3C)no2)c(-n2nccn2)c1C [compound 129],–,6.54,6.38,–
"O=C(c1cccc(F)c1-c1ccn[nH]1)N1CCC[C@H]1c1nc(-c2ccccc2OC(F)(F)F)no1 [compound 168, [3-Fluoro-2-(2H-pyrazol-3-yl)-phenyl]-{(S)-2-[3-(2-trifluoromethoxy-phenyl)-[1,2,4]oxadiazol-5-yl]-pyrrolidin-1-yl}-methanone]",7.57,8.00,–,–

SMILES,pIC50 (orexin-1; [1]),pIC50 (human orexin-2 receptor; [2]),pIC50 (orexin-1),pIC50 (human orexin-2 receptor)
COc1ccc(C)cc1-c1nc([C@@H]2CCCN2C(=O)c2cc(Cl)ccc2-n2nccn2)no1 [compound 417],6.57,7.68,–,–
"COc1ccccc1-c1noc([C@@H]2CCCN2C(=O)c2ccccc2-n2nccn2)n1 [compound 227, {(S)-2-[3-(2-Methoxy-phenyl)-[1,2,4]oxadiazol-5-yl]-pyrrolidin-1-yl}-(2-[1,2,3]triazol-2-yl-phenyl)-methanone]",6.07,6.37,–,–
COc1cc(C(=O)N2CCC[C@H]2c2nc(-c3cccc(Cl)c3C)no2)c(-n2nccn2)cc1Cl [compound 280],7.27,8.40,–,–
COc1c(F)cccc1-c1nnc([C@@H]2CCCN2C(=O)c2ccc(Cl)cc2-n2nccn2)[nH]1 [compound 476],7.57,8.52,–,–
COc1cc(C)cc(-c2nc([C@@H]3CCCN3C(=O)c3cc(Cl)ccc3-n3nccn3)no2)c1 [compound 415],6.71,–,–,7.31
"Cc1ccc(-n2nccn2)c(C(=O)N2CCC[C@H]2c2cc(-c3ccccc3OC(F)(F)F)n[nH]2)c1 [compound 532, (5-Methyl-2-[1,2,3]triazol-2-yl-phenyl)-{(S)-2-[5-(2-trifluoromethoxy-phenyl)-2H-pyrazol-3-yl]-pyrrolidin-1-yl}-methanone]",6.54,6.84,–,–
Cc1c(Cl)cccc1-c1nnc([C@]2(C)CCCN2C(=O)c2ccc(Cl)cc2-n2nccn2)[nH]1 [compound 555],7.57,7.96,–,–
"CCOc1c(F)cccc1-c1nc([C@@H]2CCCN2C(=O)c2ccc(C)cc2-n2nccn2)no1 [compound 328, {(S)-2-[5-(2-Ethoxy-3-fluoro-phenyl)-[1,2,4]oxadiazol-3-yl]-pyrrolidin-1-yl}-(4-methyl-2-[1,2,3]triazol-2-yl-phenyl)-methanone]",7.80,8.40,–,–
COc1c(F)cccc1-c1noc([C@@H]2CCCN2C(=O)c2ccc(Cl)cc2-n2nccn2)n1 [compound 204],7.19,–,–,8.00
"Cc1cccc(-c2ocnc2C(=O)N2CCC[C@H]2c2nc(-c3ccccc3OC(F)(F)F)no2)c1 [compound 140, (5-m-Tolyl-oxazol-4-yl)-{(S)-2-[3-(2-trifluoromethoxy-phenyl)-[1,2,4]oxadiazol-5-yl]-pyrrolidin-1-yl}-methanone]",7.00,7.35,–,–
"CCOc1c(F)cccc1-c1nc([C@@H]2CCCN2C(=O)c2cc(C)ccc2-n2nccn2)no1 [compound 319, {(S)-2-[5-(2-Ethoxy-3-fluoro-phenyl)-[1,2,4]oxadiazol-3-yl]-pyrrolidin-1-yl}-(5-methyl-2-[1,2,3]triazol-2-yl-phenyl)-methanone]",7.96,8.70,–,–
"CCc1ncccc1-c1noc([C@@H]2CCCN2C(=O)c2cc(C)ccc2-n2nccn2)n1 [compound 53, {(S)-2-[3-(2-Ethyl-pyridin-3-yl)-[1,2,4]oxadiazol-5-yl]-pyrrolidin-1-yl}-(5-methyl-2-[1,2,3]triazol-2-yl-phenyl)-methanone]",6.50,7.01,–,–
"Cc1ccc(-c2ccccn2)c(C(=O)N2CCC[C@H]2c2nc(-c3ccccc3OC(F)F)no2)c1 [compound 191, {(S)-2-[3-(2-Difluoromethoxy-phenyl)-[1,2,4]oxadiazol-5-yl]-pyrrolidin-1-yl}-(5-methyl-2-pyridin-2-yl-phenyl)-methanone]",6.92,7.57,–,–
"Cc1nc(C(=O)N2CCC[C@H]2c2nnc(-c3ccccc3OC(F)(F)F)o2)c(-c2cccc(F)c2)s1 [compound 443, [5-(3-Fluoro-phenyl)-2-methyl-thiazol-4-yl]-{(S)-2-[5-(2-trifluoromethoxy-phenyl)-[1,3,4]oxadiazol-2-yl]-pyrrolidin-1-yl}-methanone]",7.17,7.35,–,–
Cc1cc(C(=O)N2CCC[C@@]2(C)c2nnc(-c3cccc(Cl)c3C)[nH]2)c(-n2nccn2)cc1C [compound 553],7.85,8.22,–,–
"CCc1ccccc1-c1noc([C@@H]2CCCN2C(=O)c2cc(C)ccc2-n2nccn2)n1 [compound 25, {(S)-2-[3-(2-Ethyl-phenyl)-[1,2,4]oxadiazol-5-yl]-pyrrolidin-1-yl}-(5-methyl-2-[1,2,3]triazol-2-yl-phenyl)-methanone]",7.72,7.96,–,–
"CCOc1c(F)cccc1-c1noc([C@@H]2CCCN2C(=O)c2ccccc2-n2nccn2)n1 [compound 288, {(S)-2-[3-(2-Ethoxy-3-fluoro-phenyl)-[1,2,4]oxadiazol-5-yl]-pyrrolidin-1-yl}-(2-[1,2,3]triazol-2-yl-phenyl)-methanone]",6.18,7.28,–,–

# From patent US9493446B2, “Orexin receptor antagonists which are [ortho bi-(hetero-)aryl]-[2-(meta bi-(hetero-)aryl)-pyrrolidin-1-yl]-methanone derivatives” (Actelion Pharmaceuticals Ltd, priority 2012, dated 2016)
